This data set can be described thus: Survival of beagle dogs during the dCF bioavailability study. Format: in vivo. As to conditions: four female beagle dogs, 0.25 mg/kg IV or 1.25-5.0 mg/kg PO for 2 days. From the text:
Four female beagle dogs were assigned to this study.

For the compound `OC[C@H]1O[C@@H](n2cnc3c2NC=NC[C@H]3O)C[C@@H]1O` [dCF, 2'-deoxycoformycin], the “mortality during the course of the study” value is given as “None of the dogs died”.

Source of the values: patent US6174873A, “Oral administration of adenosine analogs” (SuperGen, Inc., priority 1998, dated 2001).
